These are literature values, as cited in US8293779B2, “Mazindol combination in the treatment of attention deficit/hyperactivity” (Assistance Publique-Hopitaux de Paris, priority 2006, dated 2012).

The conditions of data set [1]: animal toxicology studies.
For data set [2] the following is noted: unlike amphetamine molecules.
Setting [3] is: after single or repeated oral administration.

Where two headings read alike, the source gives them in different places.

Take `OC1(c2ccc(Cl)cc2)c2ccccc2C2=NCCN21` (centres unmarked) [mazindol, 5-(4-chlorophenyl)-2,5-dihydro-3H-imadazo[2,1-a]isoindol-5-ol]: in data set [1], the carcinogenic effect entry is listed as “no carcinogenic effect”, the mutagenic effect result is “no mutagenic effect”, the toxic potential entry is on record as “very low” and the “toxicology effect in reproduction” value is listed as “no toxicology effect in reproduction”. Moreover, the “cardiovascular modifications or stereotypes” value in data set [2] is listed as “does not cause cardiovascular modifications or stereotypes”. Also, the “part of the dose still plasmatically effective” value (24 hours after taking) is recorded as 75%. Under setting [3], the plasmatic half-life time is 33 to 55 h and the tmax is 2 to 4 h. Under “doses of between 1 mg/day and 4 mg/day”, the pharmacokinetics dose dependence result was “linear (independent of the dose)”. In addition, the plasmatic half-life time entry (general statement) was “greater than one day”. Moreover, the “excretion in faeces (fraction)” value (in vivo) is “¼”. Further, under “oral, with food”, the “delay of absorption by taking food concomitantly” value was “approximately 1 hour” and the “effect of food on total quantity absorbed” value is on record as “does not modify the total quantity absorbed”. The “excretion in urine (fraction)” value (principal metabolism urinary) was “¾”.
